Experimental findings from paper PMC10392906 (Advances and Applications in Bioinformatics and Chemistry : …, 2023) are described below.

In this assay the target is T1, pancreatic porcine α-amylase (Sus scrofa, UniProt P00690).
T1 sequence (P00690 16-511): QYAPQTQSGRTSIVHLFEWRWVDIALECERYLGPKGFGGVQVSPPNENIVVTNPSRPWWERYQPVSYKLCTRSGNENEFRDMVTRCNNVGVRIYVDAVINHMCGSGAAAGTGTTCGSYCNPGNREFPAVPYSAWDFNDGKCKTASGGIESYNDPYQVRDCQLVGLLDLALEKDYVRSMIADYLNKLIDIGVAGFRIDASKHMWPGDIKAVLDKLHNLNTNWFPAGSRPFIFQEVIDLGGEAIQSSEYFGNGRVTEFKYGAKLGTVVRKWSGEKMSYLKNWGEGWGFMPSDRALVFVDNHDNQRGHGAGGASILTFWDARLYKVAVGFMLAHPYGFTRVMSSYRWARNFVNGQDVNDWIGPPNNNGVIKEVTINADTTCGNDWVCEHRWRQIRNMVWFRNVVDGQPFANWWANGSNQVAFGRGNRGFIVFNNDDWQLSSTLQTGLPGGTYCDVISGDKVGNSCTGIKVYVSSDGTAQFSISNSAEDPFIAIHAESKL
Nature of the assay: α-Amylase inhibitory assay. In kind it is biochemical. The note with it: for inhibition at 10 µg/mL: read-out: % of Inhibition of α-amylase (Mean ± S.D.), 10 µg/mL.

For the compound “4-(-2-(3-(4-(Dimethylamino)phenyl)-4,5-Dihydro-1H-Pyrazol-5-yl)vinyl)-2-Methoxyphenol [Compound 8]”, the “% of Inhibition of α-amylase (Mean ± S.D.)” value (10 µg/mL) turned out to be 85.32±0.36%.
Regarding `COc1cc(C=CC(=O)CC(c2ccc(N(C)C)cc2)n2ccnc2)ccc1O` (stereo not shown) [Compound 16, 5-(4-(Dimethylamino)phenyl)-1-(4-Hydroxy-3-Methoxyphenyl)-5-(1H-Imidazol-1-yl)pent-1-En-3-One], the inhibition at 10 µg/mL came to 87.15 ± 0.46%. Also, the “α-amylase inhibitory effect better than acarbose” value (versus acarbose) is recorded as “up to 2 fold”.
For the compound `COc1cc(C=Cc2cc(-c3ccccc3)nc(O)n2)ccc1O` [Compound 11, 4-(4-Hydroxy-3-Methoxystyryl)-6-Phenylpyrimidin-2-ol], the inhibition at 10 µg/mL is 85.17 ± 0.55%.
